Measurements from patent US9670223B2, “Compounds with super-aspirin effects” (SOLVOTRIN THERAPEUTICS LTD., priority 2011, dated 2017).
Where two headings read alike, the source gives them in different places.

How the values were obtained:
[1] = system: platelet esterases (pNPA hydrolysis in WP); format: biochemical, human; conditions: for effect on NPA/PNA activity of WP or lysed platelets: 10-100 μM
Description: WP, PRP, PPP or lysed WP and 50 mM TrisHCl pH7.4 were incubated on a 96 well plate at 37° C. for 30 min. PNA at a final concentration of 3 mM was added to the plate and the change in absorbance at 405 nm was measured over a period of 10 min.
NPA hydrolyse activity could be due to CE (EC 3.1.1.1), BuChE, acetylcholinesterase (AChE, EC 3.1.1.7) or paraoxanase/arylesterase (PON, EC 3.1.8.1). To identify which esterases were involved in the hydrolysis of PNA, various inhibitors were incubated with the WP, PRP, PPP or lysed WP and 50 mM TrisHCl pH7.4 for 30 min at 37° C. prior to the addition of the PNA and the measurement of the change in absorbance at 405 nm. Physostigmine (100 μM), a cholinesterase inhibitor was used to check if BuChE/AChE played a role in the hydrolysis of PNA. […] PMSF (10-100 μM) was used to determine if serine proteases played any part in the hydrolysis of PNA by platelets. EDTA a calcium chelator was used to investigate the role played by PON esterases. BNPP a CE inhibitor of was used to investigate if carboxylesterases played a role in hydrolysis of PNA by platelets.

[2] = system: platelet rich plasma (PRP); assay: Collagen-induced platelet aggregation in platelet rich plasma (light aggregometry); format: cell-based, human; conditions: for inhibition of collagen induced aggregation by hydrolysis products: 10-300 μM in PRP, collagen 5 μg/ml
Description: (§1) PRP and WP (2.5×10^8 platelets ml^−1) were prepared from blood. Briefly 36 ml whole blood was collected into 4 ml of 3.15% sodium citrate; this was centrifuged at 250 ¥g for 20 min (with gentle acceleration and deceleration). At this point PRP, which had separated from white blood cells and red blood cells, was gently removed. When WP were required this PRP was centrifuged at 700 g for 10 min (with gentle acceleration and deceleration) in the presence of prostacyclin. The platelet-poor plasma (PPP) was removed and the platelet pellet was washed three times with Tyrode's buffer, before being re-suspended in Tyrode's buffer to a concentration of 2.5 ¥108 platelets/ml.
(§2) Platelet aggregation was measured by light aggregometry. […] Aggregation was initiated by the addition of agonists, and monitored by Aggro-Link software for at least 6 min.
(§3) To study the aggregatory potency of ADP, the concentration-response (0.3-10 μM) curves were generated. Collagen at different concentrations (2-5 μg/ml) was also used to induce platelet aggregation. Submaximal concentrations of agonists, i.e. the concentrations that gave approximately 95% of the maximal aggregation were used to study the effects of inhibitors of aggregation. Aspirin and aspirin prodrugs was incubated for various intervals prior to the addition of aggregating agents.
(§4) Eserine (in DMSO, 10 μM, giving a final concentration≦0.25% DMSO, which pilot studies had determined not to affect platelet aggregation) was preincubated with PRP or WP for 5 min in the aggregometer with stirring at 900 r.p.m. before the addition of test compounds (ST0701-05), which were incubated in PRP or WP for a further 10 min prior to the addition of an agonist (10 μM ADP or 5 μg/ml Collagen) to induce platelet aggregation.

TxB2 = TxB2 suppression after single oral gavage dose; format: in vivo, cynomolgus monkey; conditions: for TxB2 suppression (TxB2 levels as percentage of baseline), in words: Phase 2A, single oral gavage, ST0702 9.6 mg/kg, aspirin 4.2 mg/kg, 1 and 24 hours post dosing; for TxB2 suppression, % complete: Phase 2B, at 24 hours
[3] = Plasma pharmacokinetics of aspirin and metabolites after single oral gavage dose; format: in vivo, cynomolgus monkey
Description: The objectives of this study are to determine the comparative clinical efficacy as determined by TxB2 suppression with single oral gavage dose administration of Aspirin, ST0702 and ST0702 Micronised to the cynomolgus monkey. Aspirin pharmacokinetics were compared using Area Under the Curve (AUC) calculations.
The objectives of this study are to determine the comparative pharmacokinetics of ST0702 at 9.6 and 4.8 mg/Kg with single oral gavage dose administration to the cynomolgus monkey and to determine dose-response effects.
Although the half life of the Isosorbide 2 salicylate 5 nicotinate metabolite is very short in-vitro, we investigated the serum taken from Cynomologus Monkeys participating in Study 2B above. The comparative pharmacokinetics of Isosorbide 2 salicylate 5 nicotinate from Monkeys receiving a single oral gavage dose of micronized ST0702 at 9.6 and 4.8 mg/Kg were evaluated. The concentrations of the breakdown products of ISANA were quantified using LCMS methods.
Animals are acclimated to the oral gavage procedure for at least 3 days prior to the commencement of dose formulation administration. Deionized water is administered by oral gavage using a disposable catheter attached to a plastic syringe at a dose volume of 5 mL/kg. Animals are treated at approximately the same time on each dosing day. Dose formulations are administered by oral gavage using a disposable catheter attached to a plastic syringe. Following each daily dose, the gavage tube is rinsed with 6 mL of Ultra Pure water into the animal's stomach. Each animal will be dosed with a clean gavage tube on each dosing occasion. The dosing volume is 10 mL/kg. Each actual volume administered will be based on the most recent practical body weight of each animal. The dose formulations will be stirred continuously during dose administration.
Samples are mixed gently and placed on crushed wet ice until centrifugation, which are carried out as soon as practical. The samples are centrifuged for approximately 10 minutes in a refrigerated centrifuge (approximately 4° C.) at 2700 rpm. The resultant plasma are separated, transferred to uniquely labeled clear polypropylene tubes, and frozen immediately over dry ice and transferred to a freezer set to maintain −80° C. The plasma samples are transferred to the bioanalytical laboratory at the Testing Facility.
Plasma samples are analyzed for concentration of Aspirin, Salicylic Acid and Nicotinic Acid using a qualified analytical procedure. Analysis are performed by LC MS/MS under Analytical Procedure. Data collection is performed using Analyst from AB Sciex. […]

[4] = system: platelet rich plasma (PRP); assay: ADP-induced platelet aggregation in PRP; format: cell-based, human; conditions: ODQ 10 μM, ADP 10 μM, PRP
Description: as §1, §2, §3, §4
1H-[1,2,4]Oxadiazolo[4,3-a]quinoxalin-1-one (ODQ, dissolved in 100% DMSO, used at a final concentration of 10 μM, which gave a final concentration not more than 0.25% DMSO) was preincubated with PRP or WP for 5 min in the aggregometer with stirring at 900 r.p.m. before the addition of test compounds (ST0701-05), which were incubated in PRP or WP for a further 10 min prior to the addition of an agonist (10 μM ADP or 5 μg/ml collagen) to induce platelet aggregation.
Eserine (10 μM) was incubated with PRP for 5 min in the aggregometer with stirring at 900 r.p.m. before the addition of test compound ST0702 salicylate (500 μM), which was incubated in PRP for a further 10 min prior to the addition of the agonist ADP (10 μM) to induce platelet aggregation.

washed platelets (WP) = assay: Collagen-induced platelet aggregation in washed platelets (light aggregometry); format: cell-based, human; conditions: WP, collagen 2 μg/ml, PMSF up to 100 μM
Description: as §1, §2, §3
To study the involvement of plasma BuChE in the activation of ST0701, purified BuChE (3 U/ml) was incubated with WP for 5 min in the aggregometer with stirring at 900 r.p.m. before the addition of the test compounds ST0701 which was incubated with the WP for a further 10 min, prior to the addition of collagen (5 ug/ml).
as §4
Phenylmethylsulphonylfluoride (PMSF) 20, 50 and 100 μM dissolved in EtOH (<0.2% EtOH, which pilot studies had determined not to affect platelet aggregation) was preincubated in WP in the aggregometer for 5 min with stirring at 900 r.p.m. before the addition of test compound ST0702 to the WP, which was further incubated for 10 min prior to the addition of collagen (2 μg/ml) to induce platelet aggregation.

P-selectin = assay: Flow cytometry of platelet P-selectin during TCIPA induced by 59M cells; format: cell-based, human; conditions: 300 μM
59M cells [5] = assay: Tumour cell-induced platelet aggregation (TCIPA), static conditions, 59M; format: cell-based, human; conditions: static, WP, 300 and 500 μM, 59M 1×10^3/ml
Text: ISAS meanwhile is hydrolysed to aspirin and salicylic acid. […] The structure of platelet-tumor cell aggregates was studied using phase-contrast microscopy (Alonso-Escolano et al., 2004; Jurasz et al., 2001). […] Aliquots of each sample were then taken for phase-contrast microscopy examination using an Olympus CKX41 microscope (Olympus America Inc., […].). Photomicrographs were captured using a digital camera and MicroFire (Olympus America Inc.) software (Alonso-Escolano et al., 2004; Jurasz et al., 2001).

59M cells [6] = assay: Flow-mediated TCIPA using an ultrasound standing wave trap; format: cell-based, human; conditions: 500 μM, 59M cell cluster
Text: The ultrasound trap had three essential features: a transducer (Ferroperm, Kvistgard, Denmark) in a housing of radial symmetry, an aqueous phase and a reflector that provided optical access from above. The trap was driven with a function generator (Hewlett Packard 33120A, UK). Microscopic observation occurred with a fast, high-resolution XM10 camera (Soft Imaging System, SIS, GmbH) mounted on an Olympus BX51M reflection epi-fluorescence microscope. Images were captured by a standard PC equipped with the Cell-D image acquisition software (Soft Imaging System, SIS, GmbH).
The experimental procedure was as follows: 59M cells were introduced into the trap, the acoustic field (2.13 MHz, 0.85 MPa) was initiated and cell clusters were allowed to form. Clusters remained levitated in suspension for 10 min. Washed platelets (2.5×10^8/ml) were introduced into the trap at a flow rate of 3 μl/min. Perfusion of washed platelets around the cluster proceeded following initial adhesion of platelets to the periphery of the cluster.
To study the effect of aspirin and aspirin prodrugs in TCIPA, washed platelets were pre-incubated for 10 min at room temperature with the inhibitors: aspirin, nicotinate, ISAS, ISMNA, ortho and meta (all at a concentration of 500 μM), prior to their introduction into the ultrasound trap. […] The cell cluster-platelet aggregate remained under microscopic observation for further 10 min (the upper time limit established in the current study) under continuous flow conditions. Further experiments were performed with ST0702 salicylate (500 μM).

## O=[N+]([O-])c1ccc(OP(=O)(O)Oc2ccc([N+](=O)[O-])cc2)cc1 [BNPP, bis-p-nitrophylphosphate]
[1]
  effect on NPA/PNA activity of WP or lysed platelets: no significant effect

## O=C(O)CN(CCN(CC(=O)O)CC(=O)O)CC(=O)O [EDTA, ethylenediaminetetraacetic acid]
[1]
  effect on NPA activity of WP: no effect

## CC(C)NP(=O)(NC(C)C)OP(=O)(NC(C)C)NC(C)C [Iso-OMPA, tetraisopropylpyrophosphoramide]
[1]
  effect on NPA/PNA activity of WP or lysed platelets: no effect

## O[C@@H]1CO[C@H]2[C@@H]1OC[C@@H]2O [Isosorbide]
[2]
  inhibition of collagen induced aggregation by hydrolysis products: None of the hydrolysis products significantly inhibited aggregation

## CC(=O)Oc1ccccc1C(=O)OC1COC2C(OC(=O)c3cccnc3)COC12 (stereo not shown) [Micronized ST0702, isosorbide-2-aspirinate-5-nicotinate]
TxB2
  TxB2 suppression (TxB2 levels as percentage of baseline), in words: no difference between aspirin and micronized ST0702
TxB2; listed as micronised ISANA
  TxB2 suppression (TxB2 levels as percentage of baseline), in words: as effective as equimolar doses of aspirin
TxB2; 4.8 mg/Kg oral
  TxB2 suppression, % complete: 47%
TxB2; 9.6 mg/Kg oral
  TxB2 suppression, % complete: 70%
[3]; Phase 2B, Micronised ST0702 equimolar dose vs aspirin 4.2 mg/Kg
  % of aspirin AUC: 62%
[3]; Studies 2A and 2B together, relative to equivalent aspirin
  expected aspirin delivered in-vivo: 58-62%

## O=c1onc2cnc3ccccc3n12 [ODQ, 1H-[1,2,4]oxadiazolo[4,3-a]quinoxalin-1-one, reference compound]
[4]
  inhibition of ADP induced aggregation when incubated alone: some inhibition

## O=S(=O)(F)Cc1ccccc1 [PMSF, phenylmethylsulphonyl fluoride]
Washed platelets (WP)
  effect of PMSF alone on collagen-induced aggregation: no significant effect
[1]; at 10 μM
  inhibition of NPA activity in WP: 50%
[1]; at 100 μM
  inhibition of NPA activity in WP: almost completely inhibited

## O=C(O[C@H]1CO[C@H]2[C@@H]1OC[C@H]2OC(=O)c1ccccc1O)c1ccccc1O [isosorbide-2,5-disalicylate]
[2]
  inhibition of collagen induced aggregation by hydrolysis products: None of the hydrolysis products significantly inhibited aggregation
[2]; co-incubated with aspirin, 50-500 μM, non-significant trend
  attenuation of aspirin's inhibitory effect on co-incubation: ≤ 10%

## O=C(O[C@@H]1CO[C@H]2[C@H]1OC[C@@H]2O)c1ccccc1O [isosorbide-5-salicylate]
[2]
  inhibition of collagen induced aggregation by hydrolysis products: None of the hydrolysis products significantly inhibited aggregation

## CC(=O)Oc1ccccc1C(=O)O[C@H]1CO[C@H]2[C@@H]1OC[C@H]2OC(=O)c1cccc(CO[N+](=O)[O-])c1 [metanitrate]
P-selectin
  59M-mediated increase in platelet surface P-selectin: significantly (P<0.05, n=4) reduce
59M cells [5]
  inhibition of TCIPA induced by 59M: inhibited
59M cells [5]; listed as Meta
  inhibition of TCIPA induced by 59M: able to inhibit
59M cells [6]
  inhibition of TCIPA under flow conditions (platelet-tumour cell disruption): did not interfere

## O=C(O)c1ccccc1O [salicylic acid]
[2]
  inhibition of collagen induced aggregation by hydrolysis products: None of the hydrolysis products significantly inhibited aggregation
